Laboratory results as given in ChEMBL document CHEMBL1136024, “CCR3 antagonists: a potential new therapy for the treatment of asthma. Discovery and structure-activity relationships” (Bioorg Med Chem Lett, 2002).

Each compound was assayed against T1, C-C chemokine receptor type 3 (Homo sapiens, UniProt P51677) (assay: In vitro inhibition if C-C chemokine receptor type 3 (CCR3) using 150p M [125I]-labeled human eotaxin).
T1 sequence (P51677 whole entry): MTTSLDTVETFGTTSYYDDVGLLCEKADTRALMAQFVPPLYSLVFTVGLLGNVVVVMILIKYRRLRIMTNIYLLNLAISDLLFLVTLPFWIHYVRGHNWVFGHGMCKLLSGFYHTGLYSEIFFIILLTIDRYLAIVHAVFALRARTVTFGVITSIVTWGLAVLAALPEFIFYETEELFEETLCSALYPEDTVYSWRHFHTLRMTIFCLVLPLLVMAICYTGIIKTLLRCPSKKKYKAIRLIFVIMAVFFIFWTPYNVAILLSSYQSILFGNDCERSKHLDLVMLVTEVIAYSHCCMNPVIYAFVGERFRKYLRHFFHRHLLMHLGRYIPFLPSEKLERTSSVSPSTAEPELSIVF

Row | IC50 | SMILES
1 | 200 nM | CC(=O)c1cccc(NC(=O)NCCCN2CC[C@H](Cc3ccccc3)C[C@@H]2Cc2ccccc2)c1
2 | 530 nM | COc1cccc(NC(=O)N2CCCC(N3CCC(Cc4ccc(F)cc4)CC3)C2)c1 (racemic)
3 | 25600 nM | CC(C)(C)C(=O)NCCCCN1CC[C@@H]2[C@H](C1)c1cccc3c1N2CC3
4 | 50 nM | C[S+]([O-])c1cccc(NC(=O)NCCCN2CCC(Cc3ccc(F)cc3)CC2)c1 (centres undefined)
5 | 50 nM | CC[C@@H](O)[C@H]1C[C@@H](Cc2ccccc2)CCN1CCCNC(=O)Nc1cccc(C(C)=O)c1
6 | 1200 nM | O=C(NCCCN1CCC(Cc2ccccc2)CC1)Nc1ccc(C(F)(F)F)cc1
7 | 170 nM | COc1cccc(NC(=O)N2CCCCC2CN2CCC(Cc3ccc(F)cc3)CC2)c1 (racemic)
8 | 6400 nM | O=S(=O)(NCCCCN1CC[C@@H]2[C@H](C1)c1cccc3c1N2CC3)c1ccc(F)cc1
9 | 60 nM | O=C(NCCCN1CCC(Cc2ccc(F)cc2)CC1)Nc1ccc(C(F)(F)F)cc1
10 | 200 nM | CC(=O)c1cccc(NC(=O)NCCCN2CC[C@H](Cc3ccccc3)C[C@@H]2C(C)(C)O)c1
11 | 100 nM | O=C(NCCCN1CCC(Cc2ccc(F)cc2)CC1)Nc1cccc(-c2ccco2)c1
12 | 200 nM | O=C(NCCCN1CCC(Cc2ccc(F)cc2)CC1)Nc1cccc(-c2cccs2)c1
13 | 20 nM | CC(=O)c1cccc(NC(=O)NCCCN2CC[C@H](Cc3ccccc3)C[C@@H]2[C@@H](O)CC(C)C)c1
14 | 5100 nM | COc1ccc(C(=O)NCCCCN2CC[C@@H]3[C@H](C2)c2cccc4c2N3CC4)cc1
15 | 5 nM | Cn1nnnc1-c1cccc(NC(=O)NCCCN2CCC(Cc3ccc(F)cc3)CC2)c1
16 | 10100 nM | O=S(=O)(NCCCN1CC[C@@H]2[C@H](C1)c1cccc3c1N2CC3)c1ccc(F)cc1
17 | 1300 nM | N#Cc1ccc(C(=O)NCCCCN2CCC(Cc3ccccc3)CC2)cc1
18 | 5 nM | CCCC[C@H](O)[C@H]1C[C@@H](Cc2ccc(F)cc2)CCN1CCCNC(=O)Nc1cccc(C(C)=O)c1
19 | 89 nM | O=C(NCCCN1CCC(Cc2ccc(F)cc2)CC1)Nc1ccccc1[N+](=O)[O-]
20 | 500 nM | Cc1ccc(CC2CCN(CCCNC(=O)Nc3cccc(C#N)c3)CC2)cc1
21 | 50 nM | CC(=O)c1cccc(NC(=O)NCCCN2CC[C@H](Cc3ccccc3)C[C@@H]2C(C)(O)O)c1

Row | IC50 | SMILES
22 | 1 nM | CCCC[C@H](O)[C@H]1C[C@@H](Cc2ccccc2)CCN1CCCNC(=O)Nc1cccc(-c2nnnn2C)c1
23 | 300 nM | O=C(NCCCN1CCC(Cc2ccc(F)cc2)CC1)NCCc1ccccc1
24 | 20 nM | CS(=O)(=O)c1cccc(NC(=O)NCCCN2CCC(Cc3ccc(F)cc3)CC2)c1
25 | 5500 nM | O=C(NCCCN1CC[C@@H]2[C@H](C1)c1cccc3c1N2CC3)c1ccc(F)cc1
26 | 4800 nM | CN(C)c1ccc(NC(=O)NCCCN2CC[C@@H]3[C@H](C2)c2cccc4c2N3CC4)cc1
27 | 1600 nM | COc1cccc(NC(=O)N2CCC(CN3CCC(Cc4ccccc4)CC3)CC2)c1
28 | 100 nM | CCC[C@H]1C[C@@H](Cc2ccccc2)CCN1CCCNC(=O)Nc1cccc(C(C)=O)c1 (stereo in doubt; 79)
29 | 1 nM | CCCC[C@H](O)[C@H]1C[C@@H](Cc2ccccc2)CCN1CCCNC(=O)Nc1cccc(C(C)=O)c1 (stereo in doubt; form 1)
30 | 400 nM | O=C(NCCCN1CCC(Cc2ccc(F)cc2)CC1)NCc1ccccc1
31 | 9 nM | O=C(NCCCN1CCC(Cc2ccc(F)cc2)CC1)Nc1cccc([N+](=O)[O-])c1
32 | 20 nM | N#Cc1cccc(NC(=O)NCCCN2CCC(Cc3ccc(Cl)cc3)CC2)c1
33 | 330 nM | COc1cccc(NC(=O)N2CCCC(CN3CCC(Cc4ccccc4)CC3)C2)c1 (racemic)
34 | 1000 nM | O=C(NCCCCN1CCC(Cc2ccccc2)CC1)c1ccc(F)cc1
35 | 200 nM | O=C(NCCCN1CCC(Cc2ccc(F)cc2)CC1)Nc1ccccc1C(F)(F)F
36 | 200 nM | C[S+]([O-])c1ccc(NC(=O)NCCCN2CCC(Cc3ccc(F)cc3)CC2)cc1 (centres undefined)
37 | 400 nM | O=C(NCCCN1CCC(Cc2ccccc2)CC1)Nc1ccccc1
38 | 1500 nM | O=C(NCCCN1CC[C@@H]2[C@H](C1)c1cccc3c1N2CC3)Nc1ccc(I)cc1
39 | 3700 nM | O=C(NCCCN1CC[C@@H]2[C@H](C1)c1cccc3c1N2CC3)Nc1ccc(C(F)(F)F)cc1
40 | 20 nM | N#Cc1ccc(NC(=O)NCCCN2CCC(Cc3ccc(F)cc3)CC2)cc1
41 | 100 nM | O=C(NCCCN1CCC(Cc2ccc(F)cc2)CC1)NC1CCCCC1
42 | 20 nM | N#Cc1cccc(NC(=O)NCCCN2CCC(Cc3ccc(F)cc3)CC2)c1

Row | IC50 | SMILES
43 | 60 nM | CC(=O)c1cccc(NC(=O)NCCCN2CC[C@H](Cc3ccccc3)C[C@@H]2[C@H](O)CC(C)C)c1
44 | 1600 nM | CN(C)c1ccc(NC(=O)NCCCN2CCC(Cc3ccccc3)CC2)cc1
45 | 30 nM | COc1cccc(NC(=O)N2CCO[C@H](CN3CCC(Cc4ccc(F)cc4)CC3)C2)c1
46 | 6800 nM | COc1ccccc1C(=O)NCCCCN1CC[C@@H]2[C@H](C1)c1cccc3c1N2CC3
47 | 2300 nM | COc1cccc(NC(=O)N2CCC(N3CCC(Cc4ccccc4)CC3)CC2)c1
48 | 260 nM | COc1cccc(NC(=O)N2CCO[C@@H](CN3CCC(Cc4ccc(F)cc4)CC3)C2)c1
49 | 300 nM | COc1cccc(NC(=O)NCCCN2CCC(Cc3ccccc3)CC2)c1
50 | 20 nM | CSc1cccc(NC(=O)NCCCN2CCC(Cc3ccc(F)cc3)CC2)c1
51 | 500 nM | N#Cc1cccc(NC(=O)NCCN2CCC(Cc3ccccc3)CC2)c1
52 | 8100 nM | COc1cccc(C(=O)NCCCCN2CC[C@@H]3[C@H](C2)c2cccc4c2N3CC4)c1
53 | 1200 nM | N#Cc1cccc(NC(=O)NCCCCCN2CCC(Cc3ccccc3)CC2)c1
54 | 70 nM | CS(=O)(=O)c1ccc(NC(=O)NCCCN2CCC(Cc3ccc(F)cc3)CC2)cc1
55 | 30 nM | O=C(NCCCN1CCC(Cc2ccc(F)cc2)CC1)Nc1ccccc1
56 | 1100 nM | O=C(CCCN1CC[C@@H]2[C@H](C1)c1cccc3c1N2CC3)c1ccc(F)cc1
57 | 100 nM | CC(=O)c1cccc(NC(=O)NCCCN2CC[C@H](Cc3ccccc3)C[C@@H]2[C@H](O)C(C)C)c1
58 | 500 nM | N#Cc1cccc(NC(=O)NCCCCN2CCC(Cc3ccccc3)CC2)c1
59 | 7 nM | CCC[C@H](O)[C@H]1C[C@@H](Cc2ccccc2)CCN1CCCNC(=O)Nc1cccc(C(C)=O)c1
60 | 80 nM | CCCC[C@H](O)[C@H]1C[C@@H](Cc2ccccc2)CCN1CCCNC(=O)Nc1cccc(C(C)=O)c1 (stereo in doubt; form 2)
61 | 200 nM | N#Cc1cccc(NC(=O)NCCCN2CCC(Cc3ccccc3F)CC2)c1
62 | 90 nM | O=C(NCCCN1CCC(Cc2ccc(F)cc2)CC1)NC12CC3CC(CC(C3)C1)C2
63 | 700 nM | N#Cc1cccc(NC(=O)NCCCN2CC[C@@H]3[C@H](C2)c2cccc4c2N3CC4)c1

Row | IC50 | SMILES
64 | 1200 nM | COc1cccc(C(=O)NCCCCN2CCC(Cc3ccccc3)CC2)c1
65 | 800 nM | O=C(NCCCCN1CCC(Cc2ccccc2)CC1)c1ccccc1
66 | 200 nM | N#Cc1cccc(NC(=O)NCCCN2CCC(Cc3ccccc3)CC2)c1
67 | 1100 nM | O=C(NCCCN1CC[C@@H]2[C@H](C1)c1cccc3c1N2CC3)Nc1cccc(I)c1
68 | 240 nM | COc1cccc(NC(=O)N2CCC(CN3CCC(Cc4ccc(F)cc4)CC3)C2)c1 (racemic)
69 | 250 nM | COc1cccc(NC(=O)N2CCCC(CCN3CCC(Cc4ccc(F)cc4)CC3)C2)c1 (racemic)
70 | 40 nM | CSc1ccc(NC(=O)NCCCN2CCC(Cc3ccc(F)cc3)CC2)cc1
71 | 200 nM | CCC[C@H]1C[C@@H](Cc2ccccc2)CCN1CCCNC(=O)Nc1cccc(C(C)=O)c1 (stereo in doubt)
72 | 3900 nM | O=C(NCCCCN1CC[C@@H]2[C@H](C1)c1cccc3c1N2CC3)c1ccc(F)cc1
73 | 50 nM | CC(=O)c1cccc(NC(=O)NCCCN2CC[C@H](Cc3ccccc3)C[C@@H]2[C@@H](O)C(C)C)c1
74 | 20 nM | CC(=O)c1cccc(NC(=O)NCCCN2CC[C@H](Cc3ccccc3)C[C@@H]2[C@H](C)O)c1
75 | 8300 nM | O=C(NCCN1CC[C@@H]2[C@H](C1)c1cccc3c1N2CC3)c1ccc(F)cc1
76 | 10 nM | CC(=O)c1cccc(NC(=O)NCCCN2CCC(Cc3ccc(F)cc3)CC2)c1
77 | 7 nM | O=C(NCCCN1CCC(Cc2ccc(F)cc2)CC1)Nc1ccc([N+](=O)[O-])cc1
78 | 8 nM | CC[C@H](O)[C@H]1C[C@@H](Cc2ccccc2)CCN1CCCNC(=O)Nc1cccc(C(C)=O)c1 (stereo in doubt)
79 | 100 nM | O=C(NCCCN1CCC(Cc2ccc(F)cc2)CC1)Nc1cccc(-c2ncc[nH]2)c1
80 | 6 nM | CC[C@H](O)[C@H]1C[C@@H](Cc2ccccc2)CCN1CCCNC(=O)Nc1cccc(C(C)=O)c1 (stereo in doubt; 85)
81 | 200 nM | CC(=O)c1ccc(NC(=O)NCCCN2CCC(Cc3ccc(F)cc3)CC2)cc1
82 | 70 nM | O=C(NCCCN1CCC(Cc2ccc(F)cc2)CC1)Nc1cccc(C(F)(F)F)c1
83 | 30 nM | COc1cccc(NC(=O)NCCCN2CCC(Cc3ccc(F)cc3)CC2)c1

The compounds below were run against T2, C-C chemokine receptor type 3 (Homo sapiens) (UniProt P51677) (assay: In vitro inhibitory activity against C-C chemokine receptor type 3 at 10 uM using 150p M [125I]-labeled human eotaxin).
T2 sequence (whole entry): T1 sequence (P51677 whole entry)

Row | inhibition | SMILES
84 | 45% | CC(C)(C)C(=O)NCCCCN1CC[C@@H]2[C@H](C1)c1cccc3c1N2CC3
85 | 5% | NCCCCN1CC[C@@H]2[C@H](C1)c1cccc3c1N2CC3
86 | 50% | Fc1ccc(CCN2CC[C@@H]3[C@H](C2)c2cccc4c2N3CC4)cc1
87 | 15% | Fc1ccc(CN2CC[C@@H]3[C@H](C2)c2cccc4c2N3CC4)cc1
88 | 14% | NCCCN1CC[C@@H]2[C@H](C1)c1cccc3c1N2CC3

Row | SMILES | inhibition
89 | NCCN1CC[C@@H]2[C@H](C1)c1cccc3c1N2CC3 | 15%
